What was measured:
[1] = test system: mouse spleen Naïve CD4+ T cells; test: Compound cytotoxicity detection, lactate dehydrogenase (LDH) release; format: cell-based; conditions: 4 hours incubation; FIG. 9
Procedure: 1) Separated fresh spleens from adult C57BL/6 female mice (8-12 weeks old), and ground and filtered through a […] nylon cell strainer to obtain a single cell suspension in pre-cooled PBS; 2) Seeded primary CD4+ T cells in 96-well plate with a density of 1×10^5/90 μL. The medium was 1640 medium (serum-free); 3) Added the serially diluted compounds formulated in a volume of 10 μL to designated wells; 4) Incubated the cells for 4 hours at 37 degrees Celsius and 5% CO2; 5) Detected lactate dehydrogenase (LDH) release according to CytoTox-one Homogeneous Membrane Integrity Assay Kit instructions.

THP-1 cells = test: THP-1 cell viability assay (MTT); format: cell-based, human; conditions: groups with or without the compound; FIG. 3
Procedure: 1) Recoveried and expanded THP-1 cells in a T75 culture flask. The growth medium was 10 milliliters of 10% fetal bovine serun/RPMI1640 (already containing 2 mM glutamine)/1% double antibiotics in each flask. […]

[2] = test system: mouse psoriasis model induced by Imiquimod; test: Mouse psoriasis model induced with imiquimod; format: in vivo; conditions: for relieving of inflammatory thickening of the model right ear: end point of 7-day administration
Procedure: Animal strain: 28 male BALB/c mice, 6-8 weeks old, SPF environment, 12 hours light and dark cycle, 24-26 degrees Celsius. Blank group: no treatment, n=3; […] High-dose compound test group: 3.5 mg/kg drug intraperitoneal injection+5% imiquimod ointment, n=5; Low-dose compound test group: 0.8 mg/kg drug intraperitoneal injection+5% imiquimod ointment, n=5; Combined drugs test group: 0.8 mg/kg drug intraperitoneal injection+0.0025% PGE2 (administered epidermally in 75% ethanol)+5% imiquimod ointment, n=5; Day 0: anesthetized the mouse, shaved the back with an area about 2*3 cm; Day1-7: every other day, measured the mouse body weight, left and right ear thickness, and observed the skin to obtain a score; Day7: killed the mouse, sampled the back skin and fixed in 4% PFA solution for H&E staining; Model Group Induced with Imiquimod: Day 0: anesthetized the mouse, shaved the back with an area about 2*3 cm; Day1-7: every other day, measured the mouse body weight, left and right ear thickness, and observed the skin to obtain a score; […] Massaged moderately against the direction of the hair to help absorption; Day1-7: […] Massaged moderately against the direction of the hair to help absorption; Day7: killed the mouse, sampled the back skin and fixed in 4% PFA solution for H&E staining; Day 0: anesthetized the mouse, shaved the back with an area about 2*3 cm; Day1-7: every other day, measured the mouse body weight, left and right ear thickness, and observed the skin to obtain a score; […] Day1-7: then injected intraperitoneally 3.5 mg/kg in 200 μL sterile DPBS; Day1-7: then applied 62.5 mg of imiquimod ointment on the shaved area on the back of each mouse, applied 250 μg of imiquimod ointment on the inside and outside of the right ear, and massaged moderately against the direction of hair to help absorption; Day7: killed the mouse, sampled the back skin and fixed in 4% PFA solution for H&E staining; Day 0: anesthetized the mouse, shaved the back with an area about 2*3 cm; Day1-7: every other day, measured the mouse body weight, left and right ear thickness, and observed the skin to obtain a score; […] Day1-7: then injected intraperitoneally 0.8 mg/kg in 200 μL sterile DPBS; Day1-7: then applied 62.5 mg of imiquimod ointment on the shaved area on the back of each mouse, applied 250 μg of imiquimod ointment on the inside and outside of the right ear, and massaged moderately against the direction of hair to help absorption; Day7: killed the mouse, sampled the back skin and fixed in 4% PFA solution for H&E staining; Group Treated with Compound in Combination with PGE2: Day 0: anesthetized the mouse, shaved the back with an area about 2*3 cm; Day1-7: every other day, measured the mouse body weight, left and right ear thickness, and observed the skin to obtain a score; Day1-7: […] Day-7: then injected intraperitoneally 0.8 mg/kg in 200 μL sterile DPBS; Day1-7: one hour after PGE2 administration, applied 62.5 mg of imiquimod ointment on the shaved area on the back of each mouse, and applied 250 μg of imiquimod ointment on the inside and outside of the right ear. […] The area was fixed in the disease model and was not considered, and the other three aspects were quantified as follows: 0=asymptomatic, 1=mild, 2=moderate, 3=significant, 4=very significant; Changes of the thickening of the ear; Body weight; Skin histological changes (H&E staining).

[3] = high-dose group 3.5 mg/kg intraperitoneal
[4] = low-dose group 0.8 mg/kg intraperitoneal

SMILES: C=C[C@@]1(C)CC(=O)C2(O)[C@@]3(C)C(O)CCC(C)(C)C3[C@H](OC(=O)CCN(C)C)[C@H](OC(C)=O)[C@@]2(C)O1.Cl (stereo partly shown) [6-[3-(dimethylamino)propionyl]forskolin hydrochloride]
- toxicity to CD4+ T cells (lactate dehydrogenase release) [1]: not significantly toxic
- cell viability (THP-1 cells): no significant difference
- thickness of epidermis and stratum corneum of back skin (H&E staining) ([2]; day 7, compared with the model group, FIG. 20): different degrees of thickness reduction
- day of administration on which disease alleviation showed (back skin psoriasis-like index score) [2, 3]: 3 days
- relieving of inflammatory thickening of the model right ear [2, 3]: 39%
- day of administration on which the effect began (back skin psoriasis-like index score) [2, 4]: 5 days
- relieving of inflammatory thickening of the model right ear [2, 4]: 30%
